Data on 14 molecules can be found in PubChem BioAssay AID248 (DTP/NCI, 2004).

Molecules are shown by their SMILES. Where “and” joins values, the source holds several entries; their conditions need not be identical. Identical values can stand only once. Inconclusive results and toxic doses are left out.

The subject of this experiment is L1210 leukemia ip in BDF1 mice, survival T/C. The experiment can be described thus: NCI In Vivo Anticancer Drug Screen. Data for tumor model L1210 Leukemia (intraperitoneal) in B6D2F1 (BDF1) mice. The following applies: higher = longer survival. The procedure, abridged:
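Transplanted-tumor mice were given test agent; controls received vehicle only. Survival readings from the two groups were divided (treated over control).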

[1] abbreviates: endpoint: mean survival time, dose: 100.0 mg/kg/injection, schedule: Q01DX001 (ip), vehicle: other.
Setting [2] is: endpoint: mean survival time, dose: 25.0 mg/kg/injection, schedule: Q04DX002 (ip), vehicle: Klucel (hydroxypropylcellulose) (HPC).
[3] abbreviates: endpoint: mean survival time, dose: 50.0 mg/kg/injection, schedule: Q04DX002 (ip), vehicle: Klucel (hydroxypropylcellulose) (HPC).
Where [4] appears, read: endpoint: mean survival time, dose: 100.0 mg/kg/injection, schedule: Q04DX002 (ip), vehicle: Klucel (hydroxypropylcellulose) (HPC).
The mark [5] stands for this setting: endpoint: mean survival time, dose: 100.0 mg/kg/injection, schedule: Q01DX001 (ip), vehicle: Klucel (hydroxypropylcellulose) (HPC).
Where [6] appears, read: endpoint: mean survival time, dose: 200.0 mg/kg/injection, schedule: Q01DX001 (ip), vehicle: Klucel (hydroxypropylcellulose) (HPC).
[7] abbreviates: endpoint: mean survival time, dose: 400.0 mg/kg/injection, schedule: Q01DX001 (ip), vehicle: Klucel (hydroxypropylcellulose) (HPC).
Setting [8] is: endpoint: mean survival time, dose: 100.0 mg/kg/injection, schedule: Q01DX009 (ip), vehicle: saline with Tween-80.
Where [9] appears, read: endpoint: mean survival time, dose: 200.0 mg/kg/injection, schedule: Q01DX009 (ip), vehicle: saline with Tween-80.
The mark [10] stands for this setting: endpoint: mean survival time, dose: 100.0 mg/kg/injection, schedule: Q01DX009 (ip), vehicle: Klucel (hydroxypropylcellulose) (HPC).
Where [11] appears, read: endpoint: mean survival time, dose: 100.0 mg/kg/injection, schedule: Q04DX003 (ip), vehicle: Klucel (hydroxypropylcellulose) (HPC).
The mark [12] stands for this setting: endpoint: mean survival time, dose: 200.0 mg/kg/injection, schedule: Q01DX009 (ip), vehicle: Klucel (hydroxypropylcellulose) (HPC).
The mark [13] stands for this setting: endpoint: mean survival time, dose: 200.0 mg/kg/injection, schedule: Q04DX003 (ip), vehicle: Klucel (hydroxypropylcellulose) (HPC).
Where [14] appears, read: endpoint: mean survival time, dose: 400.0 mg/kg/injection, schedule: Q04DX003 (ip), vehicle: Klucel (hydroxypropylcellulose) (HPC).
The mark [15] stands for this setting: endpoint: mean survival time, dose: 50.0 mg/kg/injection, schedule: Q01DX001 (ip), vehicle: saline.

As for `CC1(C)N=C(N)N=C(N)N1c1ccc2ccccc2c1`, the T/C (endpoint: mean survival time, dose: 5.0 mg/kg/injection, schedule: Q01DX001 (ip), vehicle: other) was 105 % of control; the T/C (endpoint: mean survival time, dose: 10.0 mg/kg/injection, schedule: Q01DX001 (ip), vehicle: other) is 102 % of control; the T/C (endpoint: mean survival time, dose: 20.0 mg/kg/injection, schedule: Q01DX001 (ip), vehicle: other) was 96 % of control; the T/C (endpoint: mean survival time, dose: 25.0 mg/kg/injection, schedule: Q01DX015 (ip), vehicle: other) was 97 % of control; the T/C (endpoint: mean survival time, dose: 40.0 mg/kg/injection, schedule: Q01DX001 (ip), vehicle: other) is 105 % of control; the T/C (endpoint: mean survival time, dose: 50.0 mg/kg/injection, schedule: Q01DX015 (ip), vehicle: other) is 107 % of control. Further, the T/C is, setting by setting: (endpoint: mean survival time, dose: 80.0 mg/kg/injection, schedule: Q01DX001 (ip), vehicle: other) 100 % of control; under setting [1], 104 % of control.

Take `O=C1c2ccccc2-c2ccccc2C12N=Nc1ccccc12` (stereo not given): the T/C reads like this: under setting [2], 101 % of control; under setting [3], 97 % of control; under setting [4], 101 % of control.

Turning to `[N-]=[N+]=N/C(=C\c1ccccc1)C(=O)c1ccccc1`, the T/C by setting is: under setting [5], 94 % of control; (endpoint: mean survival time, dose: 100.0 mg/kg/injection, schedule: Q04DX003 (ip), vehicle: other) 100 % of control; under setting [6], 98 % of control; (endpoint: mean survival time, dose: 200.0 mg/kg/injection, schedule: Q04DX003 (ip), vehicle: other) 98 % of control; under setting [7], 94 % of control; (endpoint: mean survival time, dose: 400.0 mg/kg/injection, schedule: Q04DX003 (ip), vehicle: other) 91 % of control.

With `COc1ccc(Nc2ccnc3cc(Cl)ccc23)cc1CN(CCCl)C(C)CCl` (stereo not given), the T/C is, setting by setting: (endpoint: mean survival time, dose: 25.0 mg/kg/injection, schedule: Q01DX001 (ip), vehicle: carboxymethylcellulose (CMC)) 113 % of control; (endpoint: mean survival time, dose: 50.0 mg/kg/injection, schedule: Q01DX001 (ip), vehicle: carboxymethylcellulose (CMC)) 107 % of control; (endpoint: mean survival time, dose: 100.0 mg/kg/injection, schedule: Q01DX001 (ip), vehicle: carboxymethylcellulose (CMC)) 103 % of control.

`CC(=O)Nc1ccc(N)c(NC(C)=O)n1`: the T/C (endpoint: mean survival time, dose: 100.0 mg/kg/injection, schedule: Q04DX003 (ip), vehicle: saline) was 97 % of control; the T/C (endpoint: mean survival time, dose: 200.0 mg/kg/injection, schedule: Q04DX003 (ip), vehicle: saline) was 95 % of control; the T/C (endpoint: mean survival time, dose: 400.0 mg/kg/injection, schedule: Q04DX003 (ip), vehicle: saline) is 109 % of control.

Take `C1=CC2C=CC1C2`: the T/C is, setting by setting: under setting [8], 97 % of control; (endpoint: mean survival time, dose: 100.0 mg/kg/injection, schedule: Q04DX003 (ip), vehicle: saline with Tween-80) 89 % of control; under setting [9], 92 % of control; (endpoint: mean survival time, dose: 200.0 mg/kg/injection, schedule: Q04DX003 (ip), vehicle: saline with Tween-80) 92 % of control; (endpoint: mean survival time, dose: 400.0 mg/kg/injection, schedule: Q01DX009 (ip), vehicle: saline with Tween-80) 89 % of control; (endpoint: mean survival time, dose: 400.0 mg/kg/injection, schedule: Q04DX003 (ip), vehicle: saline with Tween-80) 89 % of control.

On to `O=C1CC(C(=O)O)C2(CCCCC2)O1` (stereo not given), for which the T/C is, setting by setting: (endpoint: mean survival time, dose: 100.0 mg/kg/injection, schedule: Q04DX002 (ip), vehicle: saline with Tween-80) 104 % of control; (endpoint: mean survival time, dose: 200.0 mg/kg/injection, schedule: Q04DX002 (ip), vehicle: saline with Tween-80) 101 % of control; (endpoint: mean survival time, dose: 400.0 mg/kg/injection, schedule: Q04DX002 (ip), vehicle: saline with Tween-80) 101 % of control.

Consider `O=C1/C(=C\c2ccccn2)CCCc2ccccc21`, for which the T/C (endpoint: mean survival time, dose: 25.0 mg/kg/injection, schedule: Q01DX009 (ip), vehicle: Klucel (hydroxypropylcellulose) (HPC)) is 102 % of control; the T/C (endpoint: mean survival time, dose: 50.0 mg/kg/injection, schedule: Q01DX009 (ip), vehicle: Klucel (hydroxypropylcellulose) (HPC)) was 98 % of control; the T/C (endpoint: mean survival time, dose: 50.0 mg/kg/injection, schedule: Q04DX003 (ip), vehicle: Klucel (hydroxypropylcellulose) (HPC)) is 98 % of control; the T/C under setting [10] is 101 % of control; the T/C under setting [11] was 98 % of control; the T/C (endpoint: mean survival time, dose: 100.0 mg/kg/injection, schedule: Q04DX003 (ip), vehicle: carboxymethylcellulose (CMC)) is 96 % of control. The T/C reads like this: under setting [12], 100 % of control; under setting [13], 102 % of control; (endpoint: mean survival time, dose: 200.0 mg/kg/injection, schedule: Q04DX003 (ip), vehicle: carboxymethylcellulose (CMC)) 100 % of control; (endpoint: mean survival time, dose: 400.0 mg/kg/injection, schedule: Q01DX009 (ip), vehicle: Klucel (hydroxypropylcellulose) (HPC)) 102 % of control; under setting [14], 93 % of control; (endpoint: mean survival time, dose: 400.0 mg/kg/injection, schedule: Q04DX003 (ip), vehicle: carboxymethylcellulose (CMC)) 156 % of control. For the same molecule, under “endpoint: mean survival time, dose: 800.0 mg/kg/injection, schedule: Q04DX003 (ip), vehicle: Klucel (hydroxypropylcellulose) (HPC)”, the T/C is 104 % of control.

Take `CC(=O)N(C(=O)c1ccccc1)c1ccc(NS(=O)(=O)c2ccc(C)cc2)cc1`: the T/C by setting is: under setting [5], 91 % of control; under setting [11], 94 % of control; under setting [6], 100 % of control; under setting [7], 100 % of control; under setting [14], 90 % of control.

For the molecule `O=C(CCc1ccc(Cl)cc1)Nc1ccccc1`, the T/C was 97 % of control under setting [2], 86 % of control under setting [3] and 93 % of control under setting [4].

For `COc1cc([C@@H]2c3cc4c(cc3C[C@H]3COC(=O)[C@@H]32)OCO4)cc(OC)c1OC`, the T/C reads like this: (endpoint: mean survival time, dose: 3.12 mg/kg/injection, schedule: Q01DX009 (ip), vehicle: saline) 94 % of control; (endpoint: mean survival time, dose: 6.25 mg/kg/injection, schedule: Q01DX009 (ip), vehicle: saline) 109 % of control; (endpoint: mean survival time, dose: 12.5 mg/kg/injection, schedule: Q01DX001 (ip), vehicle: saline) 115 % of control; (endpoint: mean survival time, dose: 12.5 mg/kg/injection, schedule: Q01DX009 (ip), vehicle: saline) 110 % of control; (endpoint: mean survival time, dose: 25.0 mg/kg/injection, schedule: Q01DX001 (ip), vehicle: saline) 115 % of control; (endpoint: mean survival time, dose: 25.0 mg/kg/injection, schedule: Q01DX009 (ip), vehicle: saline) 116 % of control. Also, the T/C by setting is: (endpoint: mean survival time, dose: 45.0 mg/kg/injection, schedule: Q01DX001 (ip), vehicle: saline) 123 % of control; (endpoint: mean survival time, dose: 50.0 mg/kg/injection, schedule: Q01DX001 (ip), vehicle: other) 109 % of control; (endpoint: mean survival time, dose: 50.0 mg/kg/injection, schedule: Q01DX001 (ip), vehicle: saline with Tween-80) 110 % of control; under setting [15], 111 % of control and 117 % of control; (endpoint: mean survival time, dose: 50.0 mg/kg/injection, schedule: Q04DX003 (ip), vehicle: saline with Tween-80) 116 % of control; under setting [1], 116 % of control. The T/C was 111 % of control (endpoint: median survival time, dose: 2.5 mg/kg/injection, schedule: Q01DX009 (ip), vehicle: saline); 122 % of control (endpoint: median survival time, dose: 5.0 mg/kg/injection, schedule: Q01DX009 (ip), vehicle: saline); 88 % of control (endpoint: median survival time, dose: 10.0 mg/kg/injection, schedule: Q01DX009 (ip), vehicle: saline).

As to `COc1cccc(C2CCCCC2O)c1` (stereo not given), the T/C (endpoint: mean survival time, dose: 50.0 mg/kg/injection, schedule: Q01DX009 (ip), vehicle: saline with Tween-80) was 90 % of control; the T/C under setting [8] was 93 % of control; the T/C under setting [9] is 96 % of control.

`O=C(c1ccccc1)C(C(c1ccccc1)N1CCOCC1)N1CCOCC1` (stereo not given): the T/C was 113 % of control under setting [15]; 102 % of control (endpoint: mean survival time, dose: 100.0 mg/kg/injection, schedule: Q01DX001 (ip), vehicle: saline); 108 % of control (endpoint: mean survival time, dose: 200.0 mg/kg/injection, schedule: Q01DX001 (ip), vehicle: saline); 102 % of control (endpoint: mean survival time, dose: 400.0 mg/kg/injection, schedule: Q01DX001 (ip), vehicle: saline).

As for `CC1CC(C#N)C(CCC#N)CC1C` (stereo not given), the T/C by setting is: under setting [10], 104 % of control; under setting [11], 93 % of control; under setting [12], 106 % of control; under setting [13], 102 % of control; under setting [14], 100 % of control.
